Test results reported in patent CN103330941A, “一种紫杉醇注射剂的药物组合物” (Individual, priority 2013, dated 2013).

Key:
[1] = cited from earlier work
[2] = in the human body; cited from earlier work
[3] = Experiment 2, formulation screening: dissolution of paclitaxel; type: physicochemical

In the case of `CC(=O)O[C@H]1C(=O)[C@@]2(C)[C@H]([C@H](OC(=O)c3ccccc3)[C@]3(O)C[C@H](OC(=O)[C@H](O)[C@@H](NC(=O)c4ccccc4)c4ccccc4)C(C)=C1C3(C)C)[C@]1(OC(C)=O)CO[C@@H]1C[C@@H]2O` [紫杉醇, 5β,20-环氧-1,2α,4,7β,10β,13α-六羟基紫杉烷-11-烯-9-酮-4,10-二乙酸酯-2-苯甲酸酯-13[(2’R,3’S)-N-苯甲酰-3-苯基异丝氨酸酯]], the “solubility in organic solvents (in words)” value ([1]; methanol, ethanol or chloroform) is listed as “溶解”, the “solubility in water (in words)” value ([1]; water) is listed as “几乎不溶” and the effective bioavailability [2] is listed as “低”.

For `CC(=O)Oc1ccccc1C(=O)[O-].[Na+]` [乙酰水杨酸钠], the “solubilizing (hydrotropic) effect on paclitaxel” value ([3]; alone) was “具有助溶作用” and the “solubilizing (hydrotropic) effect on paclitaxel” value ([3]; used together with 1,2-propanediol) was “具有增加的助溶作用”.
